The results in this text go back to patent US9290453B2 (Merck Sharp & Dohme Corp., priority 2010, dated 2016).

Test [1] has as its target T1, hCRTH2 (Homo sapiens, UniProt Q9Y5Y4).
T1 construct: expressed in transfected cells; host or cells: HEK (human embryonic kidney) cells expressing hCRTH2
T1 sequence (Q9Y5Y4 1-395): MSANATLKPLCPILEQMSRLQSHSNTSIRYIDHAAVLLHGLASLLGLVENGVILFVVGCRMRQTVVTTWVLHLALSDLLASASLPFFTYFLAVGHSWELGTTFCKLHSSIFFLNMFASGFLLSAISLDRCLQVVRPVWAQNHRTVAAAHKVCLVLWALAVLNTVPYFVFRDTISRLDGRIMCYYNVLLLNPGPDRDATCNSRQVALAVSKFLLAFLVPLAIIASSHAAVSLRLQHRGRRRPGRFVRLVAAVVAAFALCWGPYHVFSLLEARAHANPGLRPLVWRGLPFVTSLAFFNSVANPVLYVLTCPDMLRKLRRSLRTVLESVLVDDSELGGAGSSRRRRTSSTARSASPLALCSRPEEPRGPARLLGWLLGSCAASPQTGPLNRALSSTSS
The test can be described thus: Radioligand Binding Assay B (scintillation proximity assay, [3H]-PGD2, HEK-hCRTH2 membranes). The note with it: Radioligand Binding Assay B (SPA). On the procedure: Radioligand binding also was performed using scintillation proximity assay (SPA) technology in a similar way as described above in Radioligand Binding Assay A with minor modification. Assays were done at room temperature in 10 mM HEPES pH 7.4, 1 mM EDTA containing 2 mM MnCl2 and 16 nM [^3H]-PGD2 (PerkinElmer, Waltham, Mass.) (164 Ci mmol^−1), in a final volume of 0.05 mL. Competing ligands were diluted in dimethylsulfoxide (Me2SO) and added using very low volumes (50 nL). The reaction was initiated by the addition of a mixture of 3.52 μg of membrane protein prepared from a human embryonic kidney (HEK)-hCRTH2 cell line adhered to 140 ug of wheatgerm agglutinin SPA beads (PerkinElmer). Total and non-specific binding were determined in the absence and the presence of 10 μM of a CRTH2 antagonist, respectively. The reaction was routinely conducted for 60 min at room temperature followed by centrifugation for 5 minutes at 1000 RPM. The radioactivity was measured with a TopCountNXT (PerkinElmer). Results determined using the SPA-based assay were similar to those from the filtration binding assay.
A general note: Scintillation proximity formats need no separation of bound from free tracer.

For test [2], the target named is T1, hCRTH2. The test can be described thus: Radioligand Binding Assay A ([3H]PGD2 filtration binding, HEK-hCRTH2 membranes). The procedure, abridged:
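Membranes from HEK-hCRTH2 cells (8-20 μg) incubated 60 min at room temperature with 3.0 nM [3H]PGD2 in 50 mM Tris-HCl pH 7.4, 1 mM EDTA, 2 mM MnCl2, 1% Me2SO. Non-specific binding defined with 10 μM PGD2; bound radioactivity counted after filtration.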

pKi: −log10 of the molar value.

In general, pKi refers to the Ki on a negative log10 scale, so that one unit is a factor of ten. Read a low pKi as a large Ki. Consider `Cc1ccc(N2CCN(C(=O)c3ccc4nc(-c5ccc(F)cc5)c(CCCCC(=O)O)cc4c3)CC2)cc1` [Compound 5AW, 5-(2-(4-fluorophenyl)-6-(4-(p-tolyl)piperazine-1-carbonyl)quinolin-3-yl)pentanoic acid], for which the pKi in test [1] (Table B, rated A-D) was 7.70 to 8.68.

In test [1] (Table B, rated A-D), `Cc1cccc(N2CCN(C(=O)c3ccc4nc(-c5ccc(F)cc5)c(CCCCC(=O)O)cc4c3)CC2)c1` [Compound 5AU, 5-(2-(4-fluorophenyl)-6-(4-(m-tolyl)piperazine-1-carbonyl)quinolin-3-yl)pentanoic acid] gave a pKi of 7.70 to 8.68.

On to `COc1ccccc1C1CCN(C(=O)c2ccc3nc(-c4ccc(Cl)cc4)c(CCCCC(=O)O)cc3c2)CC1` [Compound 5BN, 5-(2-(4-chlorophenyl)-6-(4-(2-methoxyphenyl)piperidine-1-carbonyl)quinolin-3-yl)pentanoic acid], for which, in test [1] (Table B, rated A-D), the pKi was 7.70 to 8.68.

As for `N#Cc1ccccc1N1CCN(C(=O)c2ccc3nc(-c4ccc(Cl)cc4)c(CCCCC(=O)O)cc3c2)CC1` [Compound 5BM, 5-(2-(4-chlorophenyl)-6-(4-(2-cyanophenyl)piperazine-1-carbonyl)quinolin-3-yl)pentanoic acid], in test [1] (Table B, rated A-D), the pKi is 7.70 to 8.68.

In the case of `CC1(C)CCC(NC(=O)c2ccc3nc(-c4ccc(Cl)cc4)c(CCCCC(=O)O)cc3c2)c2ccccc21` (centres unmarked) [Compound 5Bi, 5-(2-(4-chlorophenyl)-6-((4,4-dimethyl-1,2,3,4-tetrahydronaphthalen-1-yl)carbamoyl)quinolin-3-yl)pentanoic acid], in test [1] (Table B, rated A-D), the pKi was 7.70 to 8.68.

`O=C(O)CCCCc1cc2cc(C(=O)N[C@@H]3CCCc4ccccc43)ccc2nc1-c1ccc(Cl)cc1` [Compound 5AZ, (R)-5-(2-(4-chlorophenyl)-6-((1,2,3,4-tetrahydronaphthalen-1-yl)carbamoyl)quinolin-3-yl)pentanoic acid] showed a negative-log Ki (pKi) in test [1] (Table B, rated A-D) of 7.70 to 8.68.

In test [1] (Table B, rated A-D), `O=C(O)CCCCc1cc2cc(C(=O)N[C@@H]3CCOc4ccccc43)ccc2nc1-c1ccc(Cl)cc1` [Compound 5BA, (R)-5-(2-(4-chlorophenyl)-6-(chroman-4-ylcarbamoyl)quinolin-3-yl)pentanoic acid] gave a pKi of 7.70 to 8.68.

Consider `Cc1ccccc1N1CCN(C(=O)c2ccc3nc(-c4ccc(F)cc4)c(CCCCC(=O)O)cc3c2)CC1` [Compound 5AT, 5-(2-(4-fluorophenyl)-6-(4-(o-tolyl)piperazine-1-carbonyl)quinolin-3-yl)pentanoic acid], for which the pKi in test [1] (values in text) is 8.14; in test [1] (Table B, rated A-D) it was 7.70 to 8.68.

For the compound `O=C(O)CCCCc1cc2cc(C(=O)N3CCC4(CC3)OCc3ccccc34)ccc2nc1-c1ccc(F)cc1` [Compound 5AQ, 5-(2-(4-fluorophenyl)-6-(3H-spiro[isobenzofuran-1,4′-piperidin]-1′-ylcarbonyl)quinolin-3-yl)pentanoic acid], in test [1] (Table B, rated A-D), the pKi is 7.70 to 8.68.

With `O=C(O)CCCCc1cc2cc(C(=O)N[C@H]3CCOc4ccccc43)ccc2nc1-c1ccccc1` [Compound 1AL, (S)-5-(6-(chroman-4-ylcarbamoyl)-2-phenylquinolin-3-yl)pentanoic acid], the pKi in test [1] (values in text) was 7.65; in test [1] (Table B, rated A-D) it was 6.70 to 7.70.

Consider `O=C(O)CCCCc1cc2cc(C(=O)N3CC[C@@H](c4ccc(F)cc4)C3)ccc2nc1-c1ccccc1` [Compound 1AN, (S)-5-(6-(3-(4-fluorophenyl)pyrrolidine-1-carbonyl)-2-phenylquinolin-3-yl)pentanoic acid], for which the pKi in test [1] (Table B, rated A-D) was 7.70 to 8.68.

In test [1] (Table B, rated A-D), `O=C(O)CCCCc1cc2cc(C(=O)N3CC(c4ccccc4)C3)ccc2nc1-c1ccc(Cl)cc1` [Compound 5BK, 5-(2-(4-chlorophenyl)-6-(3-phenylazetidine-1-carbonyl)quinolin-3-yl)pentanoic acid] gave a negative logarithm of the Ki (pKi) of 7.70 to 8.68.

As for `C[C@@H](NC(=O)c1ccc2nc(-c3ccccc3)c(CCCCC(=O)O)cc2c1)c1ccc(F)cc1` [Compound 1AH, (R)-5-(6-((1-(4-fluorophenyl)ethyl)carbamoyl)-2-phenylquinolin-3-yl)pentanoic acid], the pKi in test [1] (Table B, rated A-D) is 6.70 to 7.70.

Compound `O=C(O)CCCCc1cc2cc(C(=O)N3CC[C@@H](c4ccccc4)C3)ccc2nc1-c1ccc(F)cc1` [Compound 5AH, (S)-5-(2-(4-fluorophenyl)-6-(3-phenylpyrrolidine-1-carbonyl)quinolin-3-yl)pentanoic acid] had a pKi in test [1] (Table B, rated A-D) of 7.70 to 8.68.

With `O=C(O)CCCCc1cc2cc(C(=O)N3CC[C@@H](c4ccccc4)C3)ccc2nc1-c1ccc(Cl)cc1` [Compound 5BF, (S)-5-(2-(4-chlorophenyl)-6-(3-phenylpyrrolidine-1-carbonyl)quinolin-3-yl)pentanoic acid], the pKi in test [1] (Table B, rated A-D) is 7.70 to 8.68.

The compound `C[C@@H](NC(=O)c1ccc2nc(-c3ccc(Cl)cc3)c(CCCCC(=O)O)cc2c1)c1ccc(F)cc1` [Compound 5BC, (R)-5-(2-(4-chlorophenyl)-6-((1-(4-fluorophenyl)ethyl)carbamoyl)quinolin-3-yl)pentanoic acid] gave a pKi in test [1] (Table B, rated A-D) of 7.70 to 8.68.

In test [1] (Table B, rated A-D), `CC1(C)CC(NC(=O)c2ccc3nc(-c4ccc(F)cc4)c(CCCCC(=O)O)cc3c2)c2ccccc2O1` (centres unmarked) [Compound 5AJ, 5-(6-((2,2-dimethylchroman-4-yl)carbamoyl)-2-(4-fluorophenyl)quinolin-3-yl)pentanoic acid] showed a pKi of 7.70 to 8.68.

Turning to `COc1ccc(N2CCN(C(=O)c3ccc4nc(-c5ccc(Cl)cc5)c(CCCCC(=O)O)cc4c3)CC2)cc1` [Compound 5BS, 5-(2-(4-chlorophenyl)-6-(4-(4-methoxyphenyl)piperazine-1-carbonyl)quinolin-3-yl)pentanoic acid], in test [1] (Table B, rated A-D), the pKi was 7.70 to 8.68.

For `COc1ccc(N2CCN(C(=O)c3ccc4nc(-c5ccccc5)c(CCCCC(=O)O)cc4c3)CC2)cc1` [Compound 1BD, 5-(6-(4-(4-methoxyphenyl)piperazine-1-carbonyl)-2-phenylquinolin-3-yl)pentanoic acid], the pKi in test [1] (Table B, rated A-D) is 7.70 to 8.68.

Turning to `O=C(O)CCCCc1cc2cc(C(=O)N3CC(c4cccc(F)c4)C3)ccc2nc1-c1ccc(Cl)cc1` [Compound 5BE, 5-(2-(4-chlorophenyl)-6-(3-(3-fluorophenyl)azetidine-1-carbonyl)quinolin-3-yl)pentanoic acid], in test [1] (Table B, rated A-D), the pKi was 7.70 to 8.68.

In test [1] (Table B, rated A-D), `CC1(C)CCC(NC(=O)c2ccc3nc(-c4ccc(F)cc4)c(CCCCC(=O)O)cc3c2)c2ccccc21` (centres unmarked) [Compound 5AK, 5-(6-((4,4-dimethyl-1,2,3,4-tetrahydronaphthalen-1-yl)carbamoyl)-2-(4-fluorophenyl)quinolin-3-yl)pentanoic acid] gave a negative logarithm of the Ki (pKi) of 7.70 to 8.68.

`O=C(O)CCCCc1cc2cc(C(=O)N3CC[C@H](c4ccc(F)cc4)C3)ccc2nc1-c1ccccc1` [Compound 1AM, (R)-5-(6-(3-(4-fluorophenyl)pyrrolidine-1-carbonyl)-2-phenylquinolin-3-yl)pentanoic acid] gave a negative-log Ki (pKi) in test [1] (Table B, rated A-D) of 6.70 to 7.70.

Take `O=C(O)CCCCc1cc2cc(C(=O)NC3CC(=O)Nc4ccccc43)ccc2nc1-c1ccccc1` (centres unmarked) [Compound 1AS, 5-(6-((2-oxo-1,2,3,4-tetrahydroquinolin-4-yl)carbamoyl)-2-phenylquinolin-3-yl)pentanoic acid]: the pKi in test [1] (Table B, rated A-D) was 7.70 to 8.68.

`O=C(O)CCCCc1cc2cc(C(=O)N[C@@H]3CCCc4cc(F)ccc43)ccc2nc1-c1ccc(Cl)cc1` [Compound 5AY, (R)-5-(2-(4-chlorophenyl)-6-((6-fluoro-1,2,3,4-tetrahydronaphthalen-1-yl)carbamoyl)quinolin-3-yl)pentanoic acid] showed a pKi in test [1] (Table B, rated A-D) of 7.70 to 8.68.

Turning to `O=C(O)CCCCc1cc2cc(C(=O)N3CCN(c4c(Cl)cncc4Cl)CC3)ccc2nc1-c1ccccc1` [Compound 1AY, 5-(6-(4-(3,5-dichloropyridin-4-yl)piperazine-1-carbonyl)-2-phenylquinolin-3-yl)pentanoic acid], the pKi is 7.85 in test [1] (values in text) and 7.70 to 8.68 in test [1] (Table B, rated A-D).

In the case of `O=C(O)CCCCc1cc2cc(C(=O)N3CCN(c4ccccc4Cl)CC3)ccc2nc1-c1ccc(Cl)cc1` [Compound 5BP, 5-(2-(4-chlorophenyl)-6-(4-(2-chlorophenyl)piperazine-1-carbonyl)quinolin-3-yl)pentanoic acid], in test [1] (Table B, rated A-D), the negative-log Ki (pKi) is 6.70 to 7.70.

The compound `N#Cc1ccc([C@@H](NC(=O)c2ccc3nc(-c4ccc(F)cc4)c(CCCCC(=O)O)cc3c2)C(F)(F)F)cc1` [Compound 5Q, 6-[[[1(R)-(4-cyanophenyl)-2,2,2-trifluoroethyl]amino]carbonyl]-2-(4-fluorophenyl)-3-quinolinepentanoic acid] showed a pKi in test [2] (Table A, rated A-D) of 7.70 to 8.68.

Take `O=C(O)CCCCc1cc2cc(C(=O)N[C@@H]3CCc4ccccc43)ccc2nc1-c1ccccc1` [Compound 1M, 6-[[(2,3-dihydro-1H-inden-1(R)-yl)amino]carbonyl]-2-phenyl-3-quinolinepentanoic acid]: the negative-log Ki (pKi) was 7.70 to 8.68 in test [2] (Table A, rated A-D) and 8.42 in test [2] (values in text).
